Measurements taken from patent US10842800B2, “Concomitant administration of glucocorticoid receptor modulators and CYP3A inhibitors” (Corcept Therapeutics, Inc., priority 2017, dated 2020).
“Also recorded” adds a separate entry of the source. Where two headings read alike, the source gives them in different places. One block for each molecule: values may come before it.

Key:
Type in all cases: in vivo, human
[1] = Ketoconazole PK after a 400 mg single dose on Day 8 of mifepristone 300 or 600 mg OD (Example 2)
From the text: (§1) Subjects were discharged on Day 11.
(§2) Subjects were discharged on Day 11. Subjects in both cohorts returned to study center on Day 13 for safety monitoring, collection of the 120-hour PK draw, and completion of the Termination Visit procedures, followed by discharge from the study. To the extent possible, any adverse events deemed study drug-related and that were ongoing at the time of discharge from the study were followed-up to resolution or until a determination was made that the unresolved event was stable.
(§3) DURATION OF TREATMENT: Up to a total of 28 days, including up to 2 weeks screening, dosing on Days 1-8, safety observation, and PK sample collection through Day 13.
(§4) Descriptive statistics count, mean, median, standard deviation, minimum, maximum, and % coefficient of variation) were provided. Ketoconazole concentrations were listed and summarized. GM means of Cmax and total AUC were compared for the single dose in this study to the combined data of reported 400 mg single doses of ketoconazole of healthy subjects from the literature.

[2] = Effect of co-administration with mifepristone on ketoconazole PK (Example 3); details: Test: Day 17, 600 mg mifepristone OD + 200 mg ketoconazole BID; Reference: Day -1, 200 mg ketoconazole single dose
Experimental: (§5) A single dose of ketoconazole was administered on Day −1.
(§6) The study was a two period study design.

[3] = Safety assessment: adverse events, laboratory tests, ECG (Example 1); details: for TEAEs considered by the investigator to be related to the drug: Example 1
Experimental: (§7) Subjects in both cohorts returned to the study center on Day 15 for safety monitoring, and completion of the Termination Visit procedures, followed by discharge from the study. Safety was assessed by spontaneously reported adverse events, physical examinations, and routine clinical laboratory tests. To the extent possible, any adverse events deemed study drug-related and that were ongoing at the time of discharge from the study were followed-up to resolution or until a determination is made that the unresolved event was stable.

[4] = Cross-study comparison of exposure to mifepristone and metabolites with historic 1200 mg OD mifepristone study (Example 3); details: for Ratio % Test/Ref, AUC0-24 (geometric mean ratio) / Ratio % Test/Ref, Cmax (geometric mean ratio): Test: present study Day 17, 600 mg mifepristone OD + 200 mg ketoconazole BID, Reference: historic study Day 7, 1200 mg mifepristone OD alone, after 34% fat meal
[5] = Liver function of a patient with excess cortisol on ketoconazole plus reduced mifepristone dose (Examples 4-7); details: concomitant ketoconazole
[6] = Safety: adverse events, laboratory tests, vital signs, ECG (Example 3); details: mifepristone 600 mg OD Days 1-17, ketoconazole 200 mg BID Days 13-17
[7] = Effect of a 400 mg single dose of ketoconazole on PK of an 8-day regimen of 300 mg or 600 mg OD mifepristone, moderate fat breakfast (Example 2)
Experimental: This was an open-label study in healthy male subjects. […] The 400 mg single dose of ketoconazole was given to all subjects on day 8.
METHODOLOGY: Twelve subjects were enrolled, six in Cohort 1 and 6 in Cohort 2.
as §1, §2
DIAGNOSIS AND MAIN […] FOR INCLUSION: Healthy male volunteers between the ages of 18 to 45 years of age with a body mass index (BMI) ranging between 19 and 32 kg/m2 and a weight of at least 60 kg (132 lbs) were enrolled. Subjects had no clinically significant abnormal findings on the physical examination, ECG, blood pressure, heart rate, medical history, or clinical laboratory results during screening. The QTc interval at screening was less than 450 msec.
as §3, §4

[8] = Effect of ketoconazole 200 mg BID on PK of mifepristone 600 mg OD and metabolites, with food (Example 3); details: for concentrations on Day 17 compared with Day 12: Day 17: mifepristone 600 mg daily + ketoconazole 200 mg twice daily, Day 12: mifepristone alone; for Ratio % Test/Reference, AUC0-24 (geometric mean ratio) / Ratio % Test/Reference, Cmax (geometric mean ratio): Test: Day 17, 600 mg mifepristone OD + 200 mg ketoconazole BID, Reference: Day 12, 600 mg mifepristone OD; for effect of co-administration with ketoconazole on exposure: mifepristone 600 mg OD + ketoconazole 200 mg BID
Experimental: as §5, §6

[9] = Safety assessment: adverse events, physical examinations, laboratory tests (Example 2)
Experimental: Safety was assessed by spontaneously reported adverse events, physical examinations, and routine clinical laboratory tests. Adverse event data were tabulated. Physical findings and laboratory test results were listed by subject.

[10] = Effect of oral ketoconazole 400 mg OD or 200 mg BID on plasma pharmacokinetics of a 300 mg single dose of mifepristone, fasted (Example 1); details: for AUC: male, human, plasma, oral, read-out: AUCtot (mean)
From the text: This study was an open-label study in healthy male subjects.
Healthy male volunteers between the ages of 18 to 45 years of age with a body mass index (BMI) ranging between 19 and 32 kg/m2 and a weight of at least 60 kg (132 lbs) were enrolled. Subjects had no clinically significant abnormal findings on the physical examination, ECG, blood pressure, heart rate, medical history, or clinical laboratory results during screening. The QTc interval at screening was less than 450 msec.
In cohort 1, six subjects received ketoconazole 400 mg OD for 14 days.
Subjects remained in the clinic on Days 2 and 3 to receive 400 mg OD oral ketoconazole fasted, and for safety evaluation and collection of blood pharmacokinetic (PK) samples. Subjects were discharged from the clinic on Day 4 following administration of 400 mg OD oral ketoconazole fasted, and returned to the clinic the mornings of Days 5 through 13 to receive 400 mg OD oral ketoconazole fasted.
In cohort 2, six subjects received ketoconazole 200 mg BID for 14 days. […] All 12 subjects completed the study. Cohort 2 subjects participated in a Screening visit to assess eligibility and a check-in Day (Day −1) during which eligibility was re-confirmed. […] The evening of Day 1, subjects received 200 mg oral ketoconazole. Subjects remained in the clinic on Days 2, 3 and 4 to receive 200 mg BID oral ketoconazole, and for safety evaluation and collection of blood pharmacokinetic (PK) samples. Subjects were discharged from the clinic on Day 4 following evening administration of 200 mg oral ketoconazole, and returned to the clinic the morning and evening of Days 5 through 13 to receive 200 mg BID oral ketoconazole. Morning doses of ketoconazole on Days 0-13 were administered in the fasted state.
as §7
Descriptive statistics (count, mean, median, standard deviation, minimum, maximum, and % coefficient of variation) were provided. […] Comparisons with previous study data were made.

[11] = single 400 mg ketoconazole dose on Day 8
[12] = Cohort 2 (600 mg OD), between Day 7 and Day 8
[13] = 900 mg mifepristone daily with inhibition of CYP3A (extrapolated from 600 mg data)
[14] = MIFE 300 mg single dose fasted, C1: Keto 400 mg OD

ketoconazole half-life on either mifepristone regimen ([1]; single 400 mg dose on Day 8, mifepristone 300 vs 600 mg OD): not appreciably different | ketoconazole AUCinf higher on 600 mg OD relative to 300 mg OD mifepristone regimen [1, 11]: 36% | ketoconazole Cmax higher on 600 mg OD relative to 300 mg OD mifepristone regimen [1, 11]: 37% | Ratio % Test/Reference, AUC (geometric mean ratio) [2]: 365.36% | Ratio % Test/Reference, Cmax (geometric mean ratio) [2]: 252.71%
Structure (SMILES): CC(=O)N1CCN(c2ccc(OCC3COC(Cn4ccnc4)(c4ccc(Cl)cc4Cl)O3)cc2)CC1 (stereo not drawn) [Ketoconazole, 1-acetyl-4-[4-[[2-(2,4-dichlorophenyl)-2-[(1H-imidazol-1-yl)-methyl]-1,3-dioxolan-4-yl]methoxy]phenyl]piperazine]
TEAEs considered by the investigator to be related to the drug [3]: One TEAE of insomnia

Structure (SMILES): CC#C[C@]1(O)CC[C@H]2[C@@H]3CCC4=CC(=O)CCC4=C3[C@@H](c3ccc(N(C)C)cc3)C[C@@]21C [Mifepristone, 11β-(4-dimethylaminophenyl)-17β-hydroxy-17α-(1-propynyl)-estra-4,9-dien-3-one]
exposures as share of those following the highest labeled dose of mifepristone (1200 mg daily) ([4]; 600 mg mifepristone OD + 200 mg ketoconazole BID): approximately 85% | Ratio % Test/Ref, AUC0-24 (geometric mean ratio) [4]: 87.27% | Ratio % Test/Ref, Cmax (geometric mean ratio) [4]: 84.64% | mifepristone exposure less than that of 1200 mg mifepristone in the absence of ketoconazole ([4]; mifepristone 600 mg co-administered with ketoconazole): 13-15% | liver function of the patient ([5]; mifepristone reduced from 600 mg to 300 mg daily): not significantly compromised | liver function of the patient ([5]; mifepristone reduced from 900 mg to 600 mg daily): not significantly compromised | liver function of the patient ([5]; mifepristone reduced from 1200 mg to 900 mg daily): not significantly compromised | liver function of the patient ([5]; mifepristone reduced from 1500 mg to 1200 mg daily): not significantly compromised | deaths or SAEs [6]: No deaths or SAEs | severe TEAEs [6]: No severe TEAEs | increase in AUC0-24 [7, 12]: 28% | increase in Cmax [7, 12]: 39% | AUC0-24 at 600 mg OD greater than at 300 mg OD ([7]; Day 7 without ketoconazole): 48% | Cmax at 600 mg OD greater than at 300 mg OD ([7]; Day 7 without ketoconazole): 42% | AUC0-24 at 600 mg OD greater than at 300 mg OD ([7]; Day 8 with 400 mg ketoconazole): 52% | Cmax at 600 mg OD greater than at 300 mg OD ([7]; Day 8 with 400 mg ketoconazole): 65% | half-life at 600 mg OD greater than at 300 mg OD ([7]; Day 8 with 400 mg ketoconazole): 13% | AUCt (AUC0-24 hours, mean) ([7]; MIFE 300 mg/d C1 Day 7, no ketoconazole): 37.734 µg·h/mL | Cmax (mean) ([7]; MIFE 300 mg/d C1 Day 8, 400 mg Keto single dose): 3240 ng/mL | corresponding increase in mifepristone AUC [8, 13]: 38.01% | corresponding increase in mifepristone Cmax [8, 13]: 27.59% | concentrations on Day 17 compared with Day 12 [8]: higher | Ratio % Test/Reference, AUC0-24 (geometric mean ratio) [8]: 138.01% | Ratio % Test/Reference, Cmax (geometric mean ratio) [8]: 127.59% | effect of co-administration with ketoconazole on exposure [8]: increased | subjects with at least 1 treatment-emergent adverse event (TEAE) ([3]; 12 subjects, mifepristone 300 mg single dose with ketoconazole for 14 days): 25% | TEAEs considered by the investigator to be related to the drug [3]: No TEAE | serious adverse effect (SAE) ([3]; mifepristone 300 mg single dose with ketoconazole for 14 days): No subject experienced a serious adverse effect (SAE); also recorded: No subject experienced an SAE | TEAEs considered possibly or probably related to mifepristone administration ([9]; four subjects in Cohort 2 (600 mg)): dizziness, nausea, vomiting, dry mouth, and rash | SAE ([9]; mifepristone 300 or 600 mg OD 8 days, ketoconazole 400 mg Day 8): No subject experienced an SAE | subjects with at least 1 TEAE ([9]; twelve subjects, mifepristone 300 or 600 mg OD 8 days, ketoconazole 400 mg Day 8): 50% | geometric mean ratio (GMR) for AUCinf ([10]; Cohort 2 vs Cohort 1): 1.05 | geometric mean ratio (GMR) for Cmax ([10]; Cohort 2 vs Cohort 1): 1.15 | Mean Ratio Cmax (C2/C1) ([10]; Keto 200 mg BID vs 400 mg OD, MIFE 300 mg single dose): 1.15 ng/mL | T1/2 (mean) [10, 14]: 37.1 h | AUC [10, 14]: 117 µg·h/mL | AUC ([10]; MIFE 300 mg single dose fasted, C2: Keto 200 mg BID): 131 µg·h/mL

Ratio % Test/Ref, AUC0-24 (geometric mean ratio) [4]: 91.34% | Ratio % Test/Ref, Cmax (geometric mean ratio) [4]: 96.31% | concentrations on Day 17 compared with Day 12 [8]: similar | Ratio % Test/Reference, AUC0-24 (geometric mean ratio) [8]: 102.33% | Ratio % Test/Reference, Cmax (geometric mean ratio) [8]: 105.73%
Structure (SMILES): CC#C[C@]1(O)CC[C@H]2[C@@H]3CCC4=CC(=O)CCC4=C3[C@@H](c3ccc(NC)cc3)C[C@@]21C [RU 42633, (8S,11R,13S,14S,17S)-17-hydroxy-13-methyl-11-[4-(methylamino)phenyl]-17-prop-1-ynyl-1,2,6,7,8,11,12,14,15,16-decahydrocyclopenta[a]phenanthren-3-one]
effect of co-administration with ketoconazole on exposure [8]: not affected by ketoconazole; also recorded: little change in exposure

Ratio % Test/Ref, AUC0-24 (geometric mean ratio) [4]: 118.18% | Ratio % Test/Ref, Cmax (geometric mean ratio) [4]: 116.55% | mean metabolite exposure compared with mifepristone ([7]; mifepristone 300 or 600 mg OD): lower | concentrations on Day 17 compared with Day 12 [8]: higher | Ratio % Test/Reference, AUC0-24 (geometric mean ratio) [8]: 166.86% | Ratio % Test/Reference, Cmax (geometric mean ratio) [8]: 169.13% | mean increase in exposure ([8]; co-administration with ketoconazole 200 mg BID, mifepristone 600 mg OD): approximately 70% | effect of co-administration with ketoconazole on exposure [8]: increased by ketoconazole
Structure (SMILES): CN(C)c1ccc([C@H]2C[C@@]3(C)[C@@H](CC[C@@]3(O)C#CCO)[C@@H]3CCC4=CC(=O)CCC4=C32)cc1 [RU 42698, (8S,11R,13S,14S,17S)-11-[4-(dimethylamino)phenyl]-17-hydroxy-17-(3-hydroxyprop-1-ynyl)-13-methyl-1,2,6,7,8,11,12,14,15,16-decahydrocyclopenta[a]phenanthren-3-one]

Ratio % Test/Ref, AUC0-24 (geometric mean ratio) [4]: 81.43% | Ratio % Test/Ref, Cmax (geometric mean ratio) [4]: 82.45% | concentrations on Day 17 compared with Day 12 [8]: similar | Ratio % Test/Reference, AUC0-24 (geometric mean ratio) [8]: 94.88% | Ratio % Test/Reference, Cmax (geometric mean ratio) [8]: 95.48%
Structure (SMILES): CC#C[C@]1(O)CC[C@H]2[C@@H]3CCC4=CC(=O)CCC4=C3[C@@H](c3ccc(N)cc3)C[C@@]21C [RU 42848, (8S,11R,13S,14S,17S)-11-(4-aminophenyl)-17-hydroxy-13-methyl-17-prop-1-ynyl-1,2,6,7,8,11,12,14,15,16-decahydrocyclopenta[a]phenanthren-3-one]
effect of co-administration with ketoconazole on exposure [8]: not affected by ketoconazole; also recorded: little change in exposure
